Experimental data published in patent US8318184B2, “MGLU2 agonists” (Eli Lilly and Company, priority 2009, dated 2012).

Assays:
human mGlu2 receptor = target: T1, human mGlu2 receptor (Homo sapiens, UniProt Q14416); experiment: Human mGlu2 Agonist FLIPR Assay; type: cell-based; details: hmGlu2 FLIPR assay, AV-12 cells, relative EC50
T1 construct: expressed in transfected cells; co-transfected with rat EAAT1 and Galpha15
From the text: AV-12 cell lines, derived from Syrian Hamster fibroblasts and stably expressing the human mGlu2 receptor and co-transfected with the rat glutamate transporter EAAT 1 (Excitatory Amino Acid Transporter 1) and the Gα15 subunit, are used for these studies. The expression of Gα15 allows Gi-coupled receptors to signal through the phospholipase C pathway, resulting in the ability to measure receptor activation by a fluorometric calcium response assay. […]
Intracellular calcium levels are monitored before and after the addition of compounds using a Fluorometric Imaging Plate Reader (FLIPR, Molecular Devices). […] Results are analyzed using Prism v4.03 (GraphPad Software). […] After taking an initial 5-sec fluorescent read on the FLIPR instrument, a compound of the present invention is added to the cell plate (50 μL per well). […] The compound effect is measured as maximal minus minimal peak heights in relative fluorescent units (RFUs) corrected for basal fluorescence measured in the absence of glutamate. […] Agonist effects are quantified as percent stimulation induced by compound alone relative to the maximal glutamate response. All data are calculated as relative EC50 values using a four-parameter logistic curve fitting program (ActivityBase v5.3.1.22).

NIH-Swiss mice = experiment: Forced Swim Test in mice; type: in vivo, mouse; details: i.p.
Description: (§1) In this assay, mechanisms with purported antidepressant-like activity decrease immobility in a brief inescapable forced swim episode.
The forced-swim test is conducted with both mice (male, NIH-Swiss mice, 20-25 g, Harlan Sprague-Dawley, Indianapolis, Ind.) and rats (male, Sprague-Dawley rats, 250-350 g, Harlan Sprague-Dawley, Indianapolis, Ind.). Mice are placed in clear plastic cylinders (diameter 10 cm; height: 25 cm) filled to 6 cm with 22-25° C. water for six min. The duration of immobility is recorded during the last 4 min of a six-minute trial. Rats are treated similarly, albeit in clear plastic cylinders of larger dimensions (diameter: 18 cm; height: 40 cm) filled with water (22-25° C.) to a depth of 16 cm for 15 min. Additionally, mice receive a single forced swim exposure; rats receive two, 5-min sessions separated by 24 hours (data is recorded only on Day 2). […] Imipramine is used as a positive control for these studies. […] Compounds are in a clear solution. The amount of time spent immobile (defined as movements only necessary to keep the subject's head above water) is the dependent measure and recorded by an observer blinded to the drug treatment of the subjects. Data are analyzed by post-hoc Dunnett's test with alpha level set at 0.05. The mouse version of the forced swim test is most commonly used.

Sprague-Dawley rats = experiment: Forced Swim Test in rats; type: in vivo, rat
Description: as §1
The forced-swim test is conducted with both mice (male, NIH-Swiss mice, 20-25 g, Harlan Sprague-Dawley, Indianapolis, Ind.) and rats (male, Sprague-Dawley rats, 250-350 g, Harlan Sprague-Dawley, Indianapolis, Ind.). Mice are placed in clear plastic cylinders (diameter 10 cm; height: 25 cm) filled to 6 cm with 22-25° C. water for six min. The duration of immobility is recorded during the last 4 min of a six-minute trial. Rats are treated similarly, albeit in clear plastic cylinders of larger dimensions (diameter: 18 cm; height: 40 cm) filled with water (22-25° C.) to a depth of 16 cm for 15 min. Additionally, mice receive a single forced swim exposure; rats receive two, 5-min sessions separated by 24 hours (data is recorded only on Day 2). The compound of Example 1 is tested in mice using intraperitoneal dosing (1, 3, or 10 mg/kg), 60 min prior to testing. […] Example 2 is administered 5 min following the first forced swim exposure and 120 min prior to the test session on Day 2. Imipramine is used as a positive control for these studies. Compounds are formulated in a water vehicle, with minimal NaOH being added to Example 1 and Example 2. Compounds are in a clear solution. The amount of time spent immobile (defined as movements only necessary to keep the subject's head above water) is the dependent measure and recorded by an observer blinded to the drug treatment of the subjects. Data are analyzed by post-hoc Dunnett's test with alpha level set at 0.05. The mouse version of the forced swim test is most commonly used. An ED60 value (60% of the amount of immobility relative to vehicle controls) is calculated to estimate potency of the test compounds.

[1] = mean and standard error of the mean

T1 sequence (Q14416 19-872): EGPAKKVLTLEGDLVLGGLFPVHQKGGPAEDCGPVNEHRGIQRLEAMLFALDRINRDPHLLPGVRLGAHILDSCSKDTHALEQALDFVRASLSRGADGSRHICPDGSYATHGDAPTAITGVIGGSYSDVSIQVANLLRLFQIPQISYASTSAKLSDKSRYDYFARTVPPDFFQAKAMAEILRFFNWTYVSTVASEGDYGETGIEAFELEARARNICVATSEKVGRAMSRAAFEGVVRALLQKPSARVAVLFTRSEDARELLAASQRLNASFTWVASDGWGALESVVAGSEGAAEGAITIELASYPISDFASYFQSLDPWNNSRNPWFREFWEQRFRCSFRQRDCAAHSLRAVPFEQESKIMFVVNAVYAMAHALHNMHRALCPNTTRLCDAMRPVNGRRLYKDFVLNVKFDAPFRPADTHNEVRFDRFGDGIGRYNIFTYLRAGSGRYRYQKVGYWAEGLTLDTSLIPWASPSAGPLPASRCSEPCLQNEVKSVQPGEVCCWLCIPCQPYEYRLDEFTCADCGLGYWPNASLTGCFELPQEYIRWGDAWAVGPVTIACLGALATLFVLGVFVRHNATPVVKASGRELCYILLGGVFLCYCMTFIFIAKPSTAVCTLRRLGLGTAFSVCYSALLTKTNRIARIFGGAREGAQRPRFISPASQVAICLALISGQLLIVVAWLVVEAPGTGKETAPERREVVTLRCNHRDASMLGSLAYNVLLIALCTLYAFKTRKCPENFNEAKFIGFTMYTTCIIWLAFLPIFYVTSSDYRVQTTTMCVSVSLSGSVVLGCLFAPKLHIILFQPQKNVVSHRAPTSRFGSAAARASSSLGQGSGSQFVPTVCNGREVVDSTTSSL

Row | SMILES | EC50 (human mGlu2 receptor) [nM] | ED60 (NIH-Swiss mice; 60 min prior to testing, single study) [mg/kg] | antidepressant-like effects (NIH-Swiss mice; F4,39=9.9, p<0.0001) | maximal effect, % of vehicle immobility levels (NIH-Swiss mice; at the 10 mg/kg dose, single study) [%] | ED60, mean of four separate replications (NIH-Swiss mice; [1]) [mg/kg] | maximal effect, % of vehicle-treated immobility levels, four separate replications (NIH-Swiss mice; [1]) [%] | maximal effect, immobility as % of vehicle-treated rats (Sprague-Dawley rats; oral dosing) [%] | immobility time (Sprague-Dawley rats; oral, following dosing with 4.1 and 13.8 mg/kg, F(4,29)=14.72, p<0.0001)
1 | N[C@@]1(C(=O)O)C[C@@H](Sc2nnc[nH]2)[C@H]2[C@H](C(=O)O)[C@H]21 [Example 1, (1R,2S,4R,5R,6R)-2-Amino-4-(4H-1,2,4-triazol-3-ylsulfanyl)bicyclo[3.1.0]hexane-2,6-dicarboxylic acid] | 23 | 10.5 | prominent antidepressant-like effects | 61 | 6.1 ± 2.5 | 49.5±11.5 | – | –
2 | C[C@H](N)C(=O)N[C@@]1(C(=O)O)C[C@@H](Sc2nnc[nH]2)[C@H]2[C@H](C(=O)O)[C@H]21.Cl [Example 2, (1R,2S,4R,5R,6R)-2-[[(2S)-2-Aminopropanoyl]amino]-4-(1H-1,2,4-triazol-3-ylsulfanyl)bicyclo[3.1.0]hexane-2,6-dicarboxylic acid hydrochloride] | – | – | – | – | – | – | 68 | significantly decreased immobility time
